Measurements: US8883812B2, “Piperidinyl pyrimidine amides as Kv7 potassium channel openers” (Pfizer Inc., priority 2010, dated 2014)

Tests used:
[1] = Predicted human efficacious concentration; settings: unbound plasma
[2] = Compound concentrations (exposure) in rat DRF safety study
in vivo = settings: male, Wistar Han IGS (CRL:WI [Han]), rat, po
Male Wistar Han IGS rats = assay: Safety studies - behavioral observations (rat DRF); settings: for Rat DRF Dose, Threshold for MCS / Rat DRF Dose, NOEL / Rat DRF Dose, Threshold for SAE: oral gavage, single dose; for Rat DRF Dose, Threshold for MCS: manageable clinical signs; for Rat DRF Dose, NOEL: no observable effect limit; for Rat DRF Dose, Threshold for SAE: serious adverse event; for Rat DRF Dose, Threshold for MCS / Rat DRF Dose, NOEL / Rat DRF Dose, Threshold for SAE / margin with regards to serious adverse events: rat; for margin with regards to serious adverse events: text statement comparing with retigabine
[3] = read-out: Rat DRF Cmax, Threshold for MCS, oral gavage, at MCS threshold dose
[4] = read-out: Rat DRF Cmax, Threshold for SAE, oral gavage, at SAE threshold dose
[5] = ratio of free brain exposure at the dose to projected human concentration

Structure (SMILES) | Predicted human Ceff Cp,u [1] [nM] | Cmax [2, 3] [nM] | Cmax [2, 4] [nM] | Cmax (in vivo) [nM] | Rat DRF Dose, Threshold for MCS (Male Wistar Han IGS rats) [mg/kg] | Rat DRF Dose, NOEL (Male Wistar Han IGS rats) [mg/kg] | Rat DRF Dose, Threshold for SAE (Male Wistar Han IGS rats) [mg/kg] | margin with regards to serious adverse events (Male Wistar Han IGS rats) [×] | Rat DRF TI (toxicity index), NOEL (Male Wistar Han IGS rats; [5]) | Rat DRF TI (toxicity index), Threshold for MCS (Male Wistar Han IGS rats; [5]) | Rat DRF TI (toxicity index), Threshold for SAE (Male Wistar Han IGS rats; [5]) | Cmax ([2]; read-out: Rat DRF Cmax, NOEL, oral gavage, at NOEL dose) [nM]
COc1nc(N2CCC(OC)CC2)nc(OC)c1NC(=O)CC(C)(C)C [Example 1, N-(4,6-dimethoxy-2-(4-methoxypiperidin-1-yl)pyrimidin-5-yl)-3,3-dimethylbutanamide] | 13 | 99 | 866 | 54 | 10 | 3 | 100 | 69 | 4.2 | 7.6 | 67 | 
CCOC(=O)Nc1ccc(NCc2ccc(F)cc2)cc1N [Retigabine, N-(2-amino-4-(4-fluorobenzylamino)-phenyl)carbamic acid ethyl ester, reference compound] | 607 | 870 to 2390 | 2390 |  | 30 to 50 | 30 | 50 | 3.9 |  |  |  | 870
